Structures can show the parent of a compound that is named as a salt.
Columns and labels:
ATM = ATM (Homo sapiens (Human), UniProt Q13315); assay: ATM in Cell Western Assay (pKAP1 in etoposide-treated MCF-7 cells); type: cell-based
Summary of the method: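 Cells received compounds in a 10-dose, 3-fold series from a 1 μM final top concentration, then 100 μM etoposide, for 1 hr at 37° C. They were then fixed with paraformaldehyde and permeabilized with 0.1% Triton X-100. After immunostaining, plates were scanned on an infrared imager.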

DNA-PK = DNA-PK (Homo sapiens (Human), UniProt P78527); assay: DNA-PK Enzyme-Linked Immunosorbent Assay (phosphorylation of GST-p53 (1-101) peptide); type: biochemical; conditions: ELISA
Summary of the method: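 ELISA with plate-bound GST-p53 (1-101) phosphorylated by DNA-PK (0.1 μg/mL final) with 20 μM ATP for 1 h at 25 °C. Compounds tested over 10 3-fold doses from 100 nM top final. Phospho-p53 Ser15 detected by antibody, HRP and TMB, absorbance at 450 nm.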

[1] = MCF-7 cells, etoposide 100 μM, 1 hr, pKAP1 readout
[2] = pKAP1 in etoposide-treated MCF-7 cells

ATM, sequence (Q13315 whole entry): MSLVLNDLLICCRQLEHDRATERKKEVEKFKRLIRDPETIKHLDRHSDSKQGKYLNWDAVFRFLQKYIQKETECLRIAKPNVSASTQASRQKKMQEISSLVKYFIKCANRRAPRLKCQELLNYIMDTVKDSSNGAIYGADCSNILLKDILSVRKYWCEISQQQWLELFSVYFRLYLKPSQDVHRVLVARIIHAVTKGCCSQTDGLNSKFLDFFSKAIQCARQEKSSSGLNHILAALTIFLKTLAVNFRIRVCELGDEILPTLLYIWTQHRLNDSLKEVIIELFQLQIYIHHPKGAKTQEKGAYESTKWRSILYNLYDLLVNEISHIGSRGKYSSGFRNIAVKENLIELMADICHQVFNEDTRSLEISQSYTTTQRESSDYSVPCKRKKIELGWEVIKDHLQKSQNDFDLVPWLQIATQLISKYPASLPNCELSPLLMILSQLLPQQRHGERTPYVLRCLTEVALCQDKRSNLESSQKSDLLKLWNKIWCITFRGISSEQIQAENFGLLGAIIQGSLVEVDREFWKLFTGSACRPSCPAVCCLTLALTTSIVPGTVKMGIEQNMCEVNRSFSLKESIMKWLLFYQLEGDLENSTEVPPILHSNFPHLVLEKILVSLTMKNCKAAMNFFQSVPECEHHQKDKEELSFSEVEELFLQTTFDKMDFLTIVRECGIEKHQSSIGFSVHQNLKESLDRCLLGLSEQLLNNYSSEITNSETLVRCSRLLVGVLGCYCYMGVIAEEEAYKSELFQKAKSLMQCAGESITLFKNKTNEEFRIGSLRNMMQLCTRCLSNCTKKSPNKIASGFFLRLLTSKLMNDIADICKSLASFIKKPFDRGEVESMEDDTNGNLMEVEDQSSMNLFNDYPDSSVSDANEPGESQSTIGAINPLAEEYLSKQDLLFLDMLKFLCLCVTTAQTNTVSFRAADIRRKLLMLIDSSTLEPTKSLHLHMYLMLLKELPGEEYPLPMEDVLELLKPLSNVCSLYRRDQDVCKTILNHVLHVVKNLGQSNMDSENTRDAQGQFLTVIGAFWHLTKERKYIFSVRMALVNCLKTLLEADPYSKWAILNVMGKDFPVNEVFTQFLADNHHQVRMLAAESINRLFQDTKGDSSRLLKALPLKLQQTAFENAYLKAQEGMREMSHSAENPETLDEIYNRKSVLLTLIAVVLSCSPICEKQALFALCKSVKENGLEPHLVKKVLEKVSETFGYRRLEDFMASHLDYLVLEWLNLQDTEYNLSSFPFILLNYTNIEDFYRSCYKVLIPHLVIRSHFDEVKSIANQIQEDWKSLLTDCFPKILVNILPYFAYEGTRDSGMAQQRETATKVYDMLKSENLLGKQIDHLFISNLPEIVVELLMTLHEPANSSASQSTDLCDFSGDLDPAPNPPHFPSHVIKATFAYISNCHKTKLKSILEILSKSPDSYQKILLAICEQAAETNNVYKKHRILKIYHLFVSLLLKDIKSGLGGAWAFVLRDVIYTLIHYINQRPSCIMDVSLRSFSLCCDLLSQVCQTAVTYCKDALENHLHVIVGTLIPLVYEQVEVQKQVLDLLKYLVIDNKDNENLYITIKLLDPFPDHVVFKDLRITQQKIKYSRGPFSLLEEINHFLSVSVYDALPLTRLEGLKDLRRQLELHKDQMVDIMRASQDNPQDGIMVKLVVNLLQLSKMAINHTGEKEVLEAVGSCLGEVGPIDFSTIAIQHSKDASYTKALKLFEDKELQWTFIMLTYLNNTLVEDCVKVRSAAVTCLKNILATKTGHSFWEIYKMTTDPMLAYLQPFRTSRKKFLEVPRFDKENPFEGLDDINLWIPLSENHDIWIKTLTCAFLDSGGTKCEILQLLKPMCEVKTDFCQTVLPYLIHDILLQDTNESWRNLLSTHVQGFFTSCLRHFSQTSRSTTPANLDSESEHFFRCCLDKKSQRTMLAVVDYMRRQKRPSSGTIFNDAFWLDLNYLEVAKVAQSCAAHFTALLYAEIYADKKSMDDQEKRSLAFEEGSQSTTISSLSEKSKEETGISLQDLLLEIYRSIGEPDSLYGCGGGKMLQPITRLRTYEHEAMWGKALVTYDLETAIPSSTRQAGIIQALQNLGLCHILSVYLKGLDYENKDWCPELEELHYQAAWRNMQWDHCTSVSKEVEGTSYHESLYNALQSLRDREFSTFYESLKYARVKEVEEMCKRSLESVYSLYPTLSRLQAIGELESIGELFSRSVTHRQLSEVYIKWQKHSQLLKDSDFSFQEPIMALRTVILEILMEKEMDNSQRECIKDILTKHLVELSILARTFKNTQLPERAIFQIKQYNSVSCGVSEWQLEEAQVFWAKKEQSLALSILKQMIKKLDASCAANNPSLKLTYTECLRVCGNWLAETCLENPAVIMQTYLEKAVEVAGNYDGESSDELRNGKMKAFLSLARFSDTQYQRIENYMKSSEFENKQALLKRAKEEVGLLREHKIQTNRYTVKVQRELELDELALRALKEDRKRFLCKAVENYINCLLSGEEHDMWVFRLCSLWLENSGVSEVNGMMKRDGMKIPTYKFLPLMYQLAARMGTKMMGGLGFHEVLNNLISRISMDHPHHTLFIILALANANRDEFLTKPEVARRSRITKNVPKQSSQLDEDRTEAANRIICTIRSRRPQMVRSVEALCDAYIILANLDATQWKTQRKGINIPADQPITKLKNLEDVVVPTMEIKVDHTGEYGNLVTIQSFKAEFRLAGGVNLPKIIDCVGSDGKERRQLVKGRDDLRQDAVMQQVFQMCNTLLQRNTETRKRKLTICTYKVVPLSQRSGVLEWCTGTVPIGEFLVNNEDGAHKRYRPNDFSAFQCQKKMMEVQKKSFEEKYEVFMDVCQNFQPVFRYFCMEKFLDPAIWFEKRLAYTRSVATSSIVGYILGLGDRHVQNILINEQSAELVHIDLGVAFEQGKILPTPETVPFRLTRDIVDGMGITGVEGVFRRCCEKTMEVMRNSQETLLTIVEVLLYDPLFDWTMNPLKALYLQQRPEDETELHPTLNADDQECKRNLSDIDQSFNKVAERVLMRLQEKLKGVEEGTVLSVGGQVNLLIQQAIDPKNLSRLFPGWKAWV

IC50 (ATM; [1]) | IC50 (DNA-PK; ATP 20 μM) | IC50 (ATM; [2]) | IC50 (DNA-PK; 20 μM ATP) | Structure (SMILES)
1 to 100 nM | 1 to 100 nM |  |  | CN(C)CCCOc1ncc(-c2ccc3ncc4c(c3c2)C2(CC2)C(=O)N4Cc2cn[nH]c2)cc1NS(=O)(=O)c1ccccc1 [Example 30, N-(5-(3′-((1H-Pyrazol-4-yl)methyl)-2′-oxo-2′,3′-dihydrospiro[cyclopropane-1,1′-pyrrolo[2,3-c]quinolin]-8′-yl)-2-(3-(dimethylamino)propoxy)pyridin-3-yl)benzenesulfonamide]
1 to 100 nM | 1 to 100 nM |  |  | Cc1ccc(S(=O)(=O)Nc2cc(-c3ccc4ncc5c(c4c3)C3(CCC3)C(=O)N5C)cnc2N2CCC(N3CCOCC3)CC2)cc1 [Example 167, 4-Methyl-N-(5-(3′-methyl-2′-oxo-2′,3′-dihydrospiro[cyclobutane-1,1′-pyrrolo[2,3-c]quinolin]-8′-yl)-2-(4-morpholinopiperidin-l-yl)pyridin-3-yl)benzenesulfonamide hydrochloride]
1 to 100 nM | 1 to 100 nM |  |  | CN(C)CCCOc1ncc(-c2ccc3ncc4c(c3c2)C2(CCC2)C(=O)N4C)cc1NS(=O)(=O)c1cc(Cl)cc(C(F)(F)F)c1 [Example 154, 3-Chloro-N-(2-(3-(dimethylamino)propoxy)-5-(3′-methyl-2′-oxo-2′,3′-dihydrospiro[cyclobutane-1,1′-pyrrolo[2,3-c]quinolin]-8′-yl)pyridin-3-yl)-5-(trifluoromethyl)benzenesulfonamide hydrochloride]
 |  | 1 to 100 nM | 1 to 100 nM | CC(C)NCCOc1ncc(-c2cc3c(cc2F)ncc2c3[C@]3(C[C@@H](Nc4ccccc4)C3)C(=O)N2C)cc1NS(C)(=O)=O [Example 460, trans-N-(5-(7′-Fluoro-3′-methyl-2′-oxo-3-(phenylamino)-2′,3′-dihydrospiro[cyclobutane-1,1′-pyrrolo[2,3-c]quinolin]-8′-yl)-2-(2-(isopropylamino)ethoxy)pyridin-3-yl)methanesulfonamide hydrochloride]
1 to 100 nM | 0.5 to 1 nM |  |  | Cc1cc(S(=O)(=O)Nc2cc(-c3ccc4ncc5c(c4c3)C3(CCC3)C(=O)N5C)cnc2N2CCC(N(C)C)CC2)sn1 [Example 233, N-(2-(4-(Dimethylamino)piperidin-1-yl)-5-(3′-methyl-2′-oxo-2′,3′-dihydrospiro[cyclobutane-1,1′-pyrrolo[2,3-c]quinolin]-8′-yl)pyridin-3-yl)-3-methylisothiazole-5-sulfonamide]
1 to 100 nM | < 0.5 nM |  |  | CN(C)CCCOc1ncc(-c2ccc3ncc4c(c3c2)C2(CCC2)C(=O)N4C)cc1NS(=O)(=O)N1CCC1 [Example 164, N-(2-(3-(Dimethylamino)propoxy)-5-(3′-methyl-2′-oxo-2′,3′-dihydrospiro[cyclobutane-1,1′-pyrrolo[2,3-c]quinolin]-8′-yl)pyridin-3-yl)azetidine-1-sulfonamide]
 |  | 1 to 100 nM | 0.5 to 1 nM | CC(C)NCCOc1ncc(-c2cc3c4c(cnc3cc2F)N(C)C(=O)C42CN(c3ccccc3Cl)C2)cc1NS(C)(=O)=O [Example 525, N-(5-(1-(2-Chlorophenyl)-7′ fluoro-3′-methyl-2′-oxo-2′,3′-dihydrospiro[azetidine-3,1′-pyrrolo[2,3-c]quinolin]-8′-yl)-2-(2-(isopropylamino)ethoxy)pyridin-3-yl)methanesulfonamide]
1 to 100 nM | 1 to 100 nM |  |  | COCCN(C)CCCOc1ncc(-c2cc3c4c(cnc3cc2F)N(C)C(=O)C42CCC2)cc1NS(=O)(=O)N1CCOCC1 [Example 294, N-(5-(7′-Fluoro-3′-methyl-2′-oxo-2′,3′-dihydrospiro[cyclobutane-1,1′-pyrrolo[2,3-c]quinolin]-8′-yl)-2-(3-((2-methoxyethyl)(methyl)amino)propoxy)pyridin-3-yl)morpholine-4-sulfonamide]
 |  | 1 to 100 nM | 1 to 100 nM | CC(C)NCCOc1ncc(-c2cc3c4c(cnc3cc2F)N(C)C(=O)C42CN(c3ccc(F)cc3)C2)cc1NS(C)(=O)=O [Example 538, N-(5-(7′-Fluoro-1-(4-fluorophenyl)-3′-methyl-2′-oxo-2′,3′-dihydrospiro [azetidine-3,1′-pyrrolo[2,3-c]quinolin]-8′-yl)-2-(2-(isopropylamino)ethoxy)pyridin-3-yl)methanesulfonamide hydrochloride]
1 to 100 nM | 1 to 100 nM |  |  | CN(C)CCCOc1ncc(-c2ccc3ncc4c(c3c2)C2(CCC2)C(=O)N4C)cc1NS(=O)(=O)c1cc(F)cc(C(F)(F)F)c1 [Example 156, N-(2-(3-(Dimethylamino)propoxy)-5-(3′-methyl-2′-oxo-2′,3′-dihydrospiro[cyclobulane-1,1′-pyrrolo[2,3-c]quinolin]-8′-yl)pyridin-3-yl)-3-fluoro-5-(trifluoromethyl)benzenesulfonamide hydrochloride]
1 to 100 nM | 1 to 100 nM |  |  | CN(C)CCCOc1ncc(-c2ccc3ncc4c(c3c2)C2(CCC2)C(=O)N4C)cc1NS(=O)(=O)c1ccc(C(F)(F)F)cc1 [Example 186, N-(2-(3-(Dimethylamino)propoxy)-5-(3′-methyl-2′-oxo-2′,3′-dihydrospiro[cyclobutane-1,1′-pyrrolo[2,3-c]quinolin]-8′-yl)pyridin-3-yl)-4-(trifluoromethyl)benzenesulfonamide hydrochloride]
 |  | 1 to 100 nM | 0.5 to 1 nM | CC(C)NCCOc1ncc(-c2cc3c4c(cnc3cc2F)N(C)C(=O)C42CCC2)cc1NS(=O)(=O)C(C)(C)C [Example 366, N-(5-(7′-Fluoro-3′-methyl-2′-oxo-2′,3′-dihydrospiro[cyclobutane-1,1′-pyrrolo[2,3-c]quinolin]-8′-yl)-2-(2-(isopropylamino)ethoxy)pyridin-3-yl)-2-methylpropane-2-sulfonamide]
 |  | > 100 nM | 1 to 100 nM | CC(C)NCCOc1ncc(-c2cc3c(cc2F)ncc2c3[C@]3(C[C@@H](c4ccccc4F)C3)C(=O)N2C)cc1NS(C)(=O)=O [Example 427, trans-N-(5-(7′-Fluoro-3-(2-fluorophenyl)-3′-methyl-2′-oxo-2′,3′-dihydrospiro[cyclobutane-1,1′-pyrrolo[2,3-c]quinolin]-8′-yl)-2-(2-(isopropylamino)ethoxy)pyridin-3-yl)methanesulfonamide]
1 to 100 nM | 0.5 to 1 nM |  |  | CN1C(=O)C2(CCC2)c2c1cnc1ccc(-c3cnc(OCCCN4CCCC4)c(NS(=O)(=O)c4ccccc4)c3)cc21 [Example 232, N-(5-(3′-Methyl-2′-oxo-2′,3′-dihydrospiro[cyclobutane-1,1′-pyrrolo[2,3-c]quinolin]-8′-yl)-2-(3-(pyrrolidin-1-yl)propoxy)pyridin-3-yl)benzenesulfonamide]
1 to 100 nM | 0.5 to 1 nM |  |  | CCN1C(=O)C2(CC2)c2c1cnc1ccc(-c3cnc(OCCCN(C)C)c(NS(=O)(=O)c4ccccc4)c3)cc21 [Example 42, N-(2-(3-(Dimethylamino)propoxy)-5-(3′-ethyl-2′-oxo-2′,3′-dihydrospiro [cyclopropane-1,1′-pyrrolo[2,3-c]quinolin]-8′-yl)pyridin-3-yl)benzenesulfonamide]
1 to 100 nM | 1 to 100 nM |  |  | Cc1ccc(S(=O)(=O)Nc2cc(-c3cc4c5c(cnc4cc3F)N(C)C(=O)C53CCC3)cnc2OCCCN2CCCCC2)cn1 [Example 217, N-(5-(7′-Fluoro-3′-methyl-2′-oxo-2′,3′-dihydrospiro[cyclobulane-1,1′-pyrrolo[2,3-c]quinolin]-8′-yl)-2-(3-(piperidin-1-yl)propoxy)pyridin-3-yl)-6-methylpyridine-3-sulfonamide hydrochloride]
> 100 nM | > 100 nM |  |  | CN(CCC#N)CCCOc1ncc(-c2ccc3ncc4c(c3c2)C2(CCC2)C(=O)N4C)cc1NS(C)(=O)=O [Example 293, N-(2-(3-((2-Cyanoethyl)(methyl)amino)propoxy)-5-(3′-methyl-2′-oxo-2′3′-dihydrospiro[cyclobutane-1,1′-pyrrolo[2,3-c]quinolin]-8′-yl)pyridin-3-yl)methanesulfonamide]
1 to 100 nM | 1 to 100 nM |  |  | CN(C)CCCOc1c(F)cc(-c2ccc3ncc4c(c3c2)C2(CC2)C(=O)N4C)cc1NS(=O)(=O)c1ccccc1 [Example 97, N-(2-(3-(Dimethylamino)propoxy)-3-fluoro-5-(3′-methyl-2′-oxo-2′,3′-dihydrospiro[cyclopropane-1,1′-pyrrolo[2,3-c]quinolin]-8′-yl)phenyl)benzenesulfonamide]
1 to 100 nM | < 0.5 nM |  |  | Cc1cc(S(=O)(=O)Nc2cc(-c3ccc4ncc5c(c4c3)C3(CCC3)C(=O)N5C)cnc2OCCCN2CCCCC2)sn1 [Example 194, 3-Methyl-N-(5-(3′-methyl-2′-oxo-2′,3′-dihydrospiro[cyclobutane-1,1′-pyrrolo[2,3-c]quinolin]-8′-yl)-2-(3-(piperidin-1-yl)propoxy)pyridin-3-yl)isothiazole-5-sulfonamide hydrochloride]
1 to 100 nM | 1 to 100 nM |  |  | CN1C(=O)C2(CCC2)c2c1cnc1ccc(-c3cnc(N4CC(N5CCCC5)C4)c(NS(C)(=O)=O)c3)cc21 [Example 277, N-(5-(3′-Methyl-2′-oxo-2′,3′-dihydrospiro[cyclobutane-1,1′-pyrrolo[2,3-c]quinolin]-8′-yl)-2-(3-(pyrrolidin-1-yl)azetidin-1-yl)pyridin-3-yl)methanesulfonamide]
 |  | 1 to 100 nM | 1 to 100 nM | CN1C(=O)C2(CCC2)c2c1cnc1ccc(-c3cnc(N4CCC(N5CCCCC5)C4)c(NS(C)(=O)=O)c3)cc21 (racemic) [Example 352, (rac)-N-(5-(3′-Methyl-2′-oxo-2′,3′-dihydrospiro[cyclobulane-1,1′-pyrrolo[2,3-c]quinolin]-8′-yl)-2-(3-(piperidin-1-yl)pyrrolidin-1-yl)pyridin-3-yl)methanesulfonamide hydrochloride]
